Laboratory results from patent US20240209027A1, “PEPTIDE AND PEPTIDE-CONTAINING COMPOSITION” (PeptiAID Inc.,, priority 2021, published 2024).
Starred links: 1 amine or outer side, 2 acyl side, 3 side chain; linkers in the order of their positions; H or OH if unused. Positions of bridges follow the written chain, without caps; N, C: chain ends. Non-standard residues stand in square brackets, D forms with d. Residues, ends and D or L forms follow the SMILES beside them. ξ: configuration not given here. *: point of attachment. Ala(piperidin-4-yl) = O=C([C@H](CC1CCN([*:3])CC1)N[*:1])[*:2]; Ala(indan-2-yl) = N[C@@H](CC1Cc2ccccc2C1)C(=O)O; Phe(4-COOH) = N[C@@H](Cc1ccc(C(=O)O)cc1)C(=O)O; Phe(4-F) = N[C@@H](Cc1ccc(F)cc1)C(=O)O; C12 diacid = O=C(O)CCCCCCCCCCC(=O)*; NMeE = CN[C@@H](CCC(=O)O)C(=O)O; Cha = N[C@@H](CC1CCCCC1)C(=O)O; Cit = NC(=O)NCCC[C@H](N)C(=O)O; NMeNle = CCCC[C@H](NC)C(=O)O; ξαMeS = CC(N)(CO)C(=O)O; PEG2 = NCCOCCOCCC(=O)O; Aib = CC(C)(N)C(=O)O; Sar = CNCC(=O)O

Tested on: SARS-CoV-2-derived S protein, Delta strain
Assay type: cell-based
Settings: Table 12

| Compound | IC50 [nM] | Imax: % (at 500 nM) [%] |
| --- | --- | --- |
| CCCC[C@H]1C(=O)NC(C)(C)C(=O)N[C@@H](CC2Cc3ccccc3C2)C(=O)N[C@@H](Cc2ccc(F)cc2)C(=O)N2CCC[C@H]2C(=O)N[C@@H](Cc2ccc(O)cc2)C(=O)N[C@@H](Cc2ccc(O)cc2)C(=O)N[C@@H](Cc2ccc(C(=O)O)cc2)C(=O)N[C@@H](CC2CCNCC2)C(=O)N[C@@H](CC2CCCCC2)C(=O)N[C@H](C(=O)N[C@H](CCC(=O)O)C(N)=O)CSCC(=O)N(C)[C@@H](CCC(=O)O)C(=O)N1C [Peptide 5555_p201] ({CH2CO}-[NMeE][NMeNle][Aib][Ala(indan-2-yl)][Phe(4-F)]PYY[Phe(4-COOH)][Ala(piperidin-4-yl)][Cha]C[dE]-NH2; thioether N-12) | 0.7 | 101 |
| CCCC[C@H]1C(=O)NC(C)(C)C(=O)N[C@@H](CC2CCCCC2)C(=O)N[C@@H](Cc2ccc(F)cc2)C(=O)N[C@H](CC(=O)O)C(=O)N[C@@H](Cc2ccc(O)cc2)C(=O)N[C@@H](Cc2ccc(O)cc2)C(=O)N[C@@H](CCCNC(N)=O)C(=O)N[C@H](CCCCN)C(=O)N[C@@H](CC2CCCCC2)C(=O)N[C@H](C(=O)N[C@H](CCC(=O)O)C(=O)NCCOCCOCCC(=O)N[C@H](CCCCNC(=O)CCCCCCCCCCC(=O)O)C(N)=O)CSCC(=O)N(C)[C@@H](CCC(=O)O)C(=O)N1C [Peptide 5555_p227] ({CH2CO}-[NMeE][NMeNle][Aib][Cha][Phe(4-F)][dD]YY[Cit][dK][Cha]C[dE][PEG2][dK](C12 diacid)-NH2; thioether N-12) | 1.9 | 100 |
| CCCC[C@H]1C(=O)NC(C)(C)C(=O)N[C@@H](CC2Cc3ccccc3C2)C(=O)N[C@@H](Cc2ccc(F)cc2)C(=O)N(C)CC(=O)N[C@@H](Cc2ccc(O)cc2)C(=O)N[C@@H](Cc2ccc(O)cc2)C(=O)N[C@@H](CCCNC(N)=O)C(=O)N[C@H](CCCCN)C(=O)N[C@@H](CC2CCCCC2)C(=O)N[C@H](C(=O)N[C@H](CCC(=O)O)C(N)=O)CSCC(=O)N(C)[C@@H](CCC(=O)O)C(=O)N1C [Peptide 5555_p213] ({CH2CO}-[NMeE][NMeNle][Aib][Ala(indan-2-yl)][Phe(4-F)][Sar]YY[Cit][dK][Cha]C[dE]-NH2; thioether N-12) | 0.6 | 101 |
| CCCC[C@H]1C(=O)NC(C)(C)C(=O)N[C@@H](CC2CCCCC2)C(=O)N[C@@H](Cc2ccc(F)cc2)C(=O)N2CCC[C@H]2C(=O)N[C@@H](Cc2ccc(O)cc2)C(=O)N[C@@H](Cc2ccc(O)cc2)C(=O)N[C@@H](CCCNC(N)=O)C(=O)N[C@H](CCCCN)C(=O)N[C@@H](CC2CCCCC2)C(=O)N[C@H](C(=O)N[C@H](CCC(=O)O)C(N)=O)CSCC(=O)N(C)[C@@H](CCC(=O)O)C(=O)N1C [Peptide 5555_p188] ({CH2CO}-[NMeE][NMeNle][Aib][Cha][Phe(4-F)]PYY[Cit][dK][Cha]C[dE]-NH2; thioether N-12) | 0.4 | 101 |
| CCCC[C@H]1C(=O)NC(C)(C)C(=O)N[C@@H](CC2Cc3ccccc3C2)C(=O)N[C@@H](Cc2ccc(F)cc2)C(=O)NC(C)(CO)C(=O)N[C@@H](Cc2ccc(O)cc2)C(=O)N[C@@H](Cc2ccc(O)cc2)C(=O)N[C@@H](Cc2ccc(C(=O)O)cc2)C(=O)N[C@@H](CC2CCNCC2)C(=O)N[C@@H](CC2CCCCC2)C(=O)N[C@H](C(=O)N[C@H](CCC(=O)O)C(N)=O)CSCC(=O)N(C)[C@@H](CCC(=O)O)C(=O)N1C (stereo partly shown) [Peptide 5555_p197] ({CH2CO}-[NMeE][NMeNle][Aib][Ala(indan-2-yl)][Phe(4-F)][ξαMeS]YY[Phe(4-COOH)][Ala(piperidin-4-yl)][Cha]C[dE]-NH2; thioether N-12) | 0.4 | 101 |
